Patent publication US9504676B2, “Molecules inhibiting a metabolic pathway involving the Syk protein tyrosine kinase and method for identifying said molecules” (CENTRE NATIONAL DE LA RECHERCHE SCIENTIFIQUE, priority 2008, dated 2016)

Tested on: PLC-γ with LAT
Assay: Association of PLC-γ with LAT (immunoprecipitation)
Format: cell-based, rat
Settings: dose-dependent
Procedure: Binding of Btk and Vav with SLP-76 is critical for regulating PLC-γ activity on the membrane, calcium mobilisation and granule exocytosis^27, 28.
• 1) Chemical products and antibodies. A chemical bank of 3000 molecules (a varied subset) was acquired from ChemBridge, Inc. (San Diego, Calif.). Stocks of solutions of small molecules were prepared at a rate of 10 mM in DMSO (dimethylsulphoxide), except for C-13 (methyl 2-{5-[(3-benzyl-4-oxo-2-thioxo-1,3-thiazolidin-5-ylidene)methyl]-2-furyl}benzoate, ChemBridge ID No. 6197026) prepared in DMF (dimethylformamide). Unless specified otherwise, all the reagents were supplied by Sigma. Dinitrophenyl (DNP) hapten was acquired from Calbiochem. […] The binding of G4G11 with Syk was assessed by adding the 9E10 monoclonal antibody conjugated with HRP detecting the amino acid sequence EQKLISEEDLN of human c-myc protein located at the C-terminal end of the scFv fragment. To generate Syk mutants, targeted mutagenesis was used on GST:Syk 6-242 protein and the binding of G4G11 with the mutants was assessed in the presence of 5 μM of C-13. • 3) Cells, culture conditions and functional tests. […] The level of β-hexosaminidase released was measured 10 min later and the TNF-α titration was performed by means of a cytotoxicity test on L929 cells as described previously^10, 3 hours after stimulation. […]

Compound: COC(=O)c1ccccc1-c1ccc(/C=C2/SC(=S)N(Cc3ccccc3)C2=O)o1 [Molecule C-13, methyl 2-{5-[(3-benzyl-4-oxo-2-thioxo-1,3-thiazolidin-5-ylidene)methyl]-2-furyl}benzoate]
- association of PLC-γ with LAT: inhibited
